From ChEMBL document CHEMBL1201862, “PubChem BioAssay data set” (2004)
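Briefly, cells in 96-well plates were exposed to five compound concentrations for 48 h, and endpoints were estimated by linear interpolation. GI50: concentration for 50% inhibition of growth.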 Active and inactive are the calls of the source. No stated cut-off is given here; in the data, active = GI50 up to about 1.1 µM and inactive = higher.

Assays:
Experiment in all cases: NCI anticancer screen, dose series, 48 h
HCT-15 = test system: HCT-15
OVCAR-5 = test system: OVCAR-5
NCI-H460 = test system: NCI-H460
MOLT-4 = test system: MOLT-4
HOP-92 = test system: HOP-92
CCRF-CEM = test system: CCRF-CEM
RXF 393 = test system: RXF 393
COLO 205 = test system: COLO 205
SR = test system: SR
SNB-19 = test system: SNB-19
CAKI-1 = test system: CAKI-1
786-0 = test system: 786-0
SN12C = test system: SN12C
HOP-62 = test system: HOP-62
IGROV-1 = test system: IGROV-1
TK-10 = test system: TK-10
A498 = test system: A498
EKVX = test system: EKVX
NCI-H226 = test system: NCI-H226
OVCAR-8 = test system: OVCAR-8

| SMILES | GI50 (HCT-15) [µM] | GI50 (OVCAR-5) | GI50 (NCI-H460) | GI50 (MOLT-4) | GI50 (HOP-92) | GI50 (CCRF-CEM) | GI50 (RXF 393) | GI50 (COLO 205) | GI50 (SR) | GI50 (SNB-19) | GI50 (CAKI-1) | GI50 (786-0) | GI50 (SN12C) | GI50 (HOP-62) | GI50 (IGROV-1) | GI50 (TK-10) | GI50 (A498) | GI50 (EKVX) | GI50 (NCI-H226) | GI50 (OVCAR-8) |
| --- | --- | --- | --- | --- | --- | --- | --- | --- | --- | --- | --- | --- | --- | --- | --- | --- | --- | --- | --- | --- |
| C=C(C)[C@@H]1CC[C@]2(C(=O)O)CC[C@]3(C)[C@H](CC[C@@H]4[C@@]5(C)CC(=O)C(C)(C)[C@@H]5CC[C@]43C)[C@@H]12 | 8.67 | 11 µM (inactive) | 4.95 µM (inactive) | 4.98 µM (inactive) | 11.1 µM (inactive) | 0.574 µM (active) | 7.87 µM (inactive) | 4.68 µM (inactive) | 5.13 µM (inactive) | 11.7 µM (inactive) | 12.2 µM (inactive) | 7 µM (inactive) | 4.46 µM (inactive) | 9.46 µM (inactive) | 9.86 µM (inactive) | 11 µM (inactive) | 5.6 µM (inactive) | 9.35 µM (inactive) | 9.38 µM (inactive) | 11.2 µM (inactive) |
| O=C(NCCCNCCNC(=O)c1cc(-c2ccccc2)nc2ccccc12)c1cc(-c2ccccc2)nc2ccccc12 | 1.52 |  | 1.83 µM (inactive) | 2.09 µM (inactive) | 2.12 µM (inactive) | 0.783 µM (active) | 2 µM (inactive) | 1.72 µM (inactive) | 2.75 µM (inactive) | 1.87 µM (inactive) | 2.26 µM (inactive) | 1.79 µM (inactive) | 1.72 µM (inactive) | 1.69 µM (inactive) | 1.95 µM (inactive) | 1.66 µM (inactive) | 2.29 µM (inactive) | 2.16 µM (inactive) | 2.32 µM (inactive) | 1.77 µM (inactive) |
| N#CC(c1ccccc1)N(CCc1ccccc1)C(=O)c1ccccc1 (configuration not stated) | > 100 | > 100 µM (inactive) | > 100 µM (inactive) | > 100 µM (inactive) | 20 µM (inactive) | > 100 µM (inactive) | > 52.1 µM (inactive) | > 100 µM (inactive) | > 100 µM (inactive) | 26.2 µM (inactive) | > 100 µM (inactive) | 27.7 µM (inactive) | > 100 µM (inactive) | 34 µM (inactive) | > 74 µM (inactive) | > 75.2 µM (inactive) | > 100 µM (inactive) | > 77.4 µM (inactive) | > 58.7 µM (inactive) | 38.7 µM (inactive) |
| COc1ccc2c(c1)/C(=C(\C(Cl)=C(Cl)Cl)[N+](=O)[O-])N2 | > 100 | > 100 µM (inactive) | > 100 µM (inactive) | 24.2 µM (inactive) | > 100 µM (inactive) | 31.1 µM (inactive) | 39.5 µM (inactive) | > 100 µM (inactive) | 11 µM (inactive) | > 100 µM (inactive) | 90.6 µM (inactive) | 69.8 µM (inactive) | > 100 µM (inactive) | > 100 µM (inactive) | > 100 µM (inactive) | > 100 µM (inactive) | 92.7 µM (inactive) | 26.7 µM (inactive) | 22.3 µM (inactive) | 92.5 µM (inactive) |
| CCOC(=O)Cn1c(C(F)(F)F)nc2nc(Cl)c(Cl)nc21 | 37.2 | > 100 µM (inactive) | 27.9 µM (inactive) | 26.6 µM (inactive) | 24.7 µM (inactive) | 20 µM (inactive) | 27.8 µM (inactive) | 40 µM (inactive) | 24.2 µM (inactive) | 34.4 µM (inactive) | 3.12 µM (inactive) | > 76.9 µM (inactive) | 49.4 µM (inactive) | 19.5 µM (inactive) | 22.8 µM (inactive) | 61.4 µM (inactive) | 25.5 µM (inactive) | 10.5 µM (inactive) | 50 µM (inactive) | 38.5 µM (inactive) |
| O=C1/C(=C/c2ccc([N+](=O)[O-])cc2)CNC/C1=C\c1ccc([N+](=O)[O-])cc1 | 1.13 | 22.8 µM (inactive) | 2.59 µM (inactive) | 2.22 µM (inactive) | 22.1 µM (inactive) | 0.229 µM (active) | 12.2 µM (inactive) | 5.62 µM (inactive) | 0.241 µM (active) | 2.27 µM (inactive) | 1.79 µM (inactive) | 1.13 µM (inactive) | 5.41 µM (inactive) | 4.55 µM (inactive) | 1.84 µM (inactive) | 33.1 µM (inactive) | 16.6 µM (inactive) | 9.86 µM (inactive) | 15 µM (inactive) | 3.13 µM (inactive) |
| COC(=O)C1=CC(O)CCC1c1ccc(OC)cc1 (configuration not stated) | > 100 | > 100 µM (inactive) | > 100 µM (inactive) | > 100 µM (inactive) | > 100 µM (inactive) | > 100 µM (inactive) | > 100 µM (inactive) | > 100 µM (inactive) | > 100 µM (inactive) | > 100 µM (inactive) | > 100 µM (inactive) | > 100 µM (inactive) | > 100 µM (inactive) | > 100 µM (inactive) | > 100 µM (inactive) | > 100 µM (inactive) | > 100 µM (inactive) | > 100 µM (inactive) | > 100 µM (inactive) | > 100 µM (inactive) |
| CCOC(=O)/C=C1\Nc2ccccc2-n2nnnc21 | > 100 | > 100 µM (inactive) | > 100 µM (inactive) | > 100 µM (inactive) | > 100 µM (inactive) | > 100 µM (inactive) | > 100 µM (inactive) | > 100 µM (inactive) | > 100 µM (inactive) | > 100 µM (inactive) | > 100 µM (inactive) | > 100 µM (inactive) | > 100 µM (inactive) | > 100 µM (inactive) | > 100 µM (inactive) | > 100 µM (inactive) | > 100 µM (inactive) | > 100 µM (inactive) | > 100 µM (inactive) | > 100 µM (inactive) |
| CSC1(SC)CCCCCCCCCCC1 | 48.1 | 53.2 µM (inactive) | 29.8 µM (inactive) | 33.7 µM (inactive) | 36.8 µM (inactive) | 22.9 µM (inactive) | 25 µM (inactive) | 19.2 µM (inactive) | 43.7 µM (inactive) | 53.5 µM (inactive) | 58.1 µM (inactive) | 37.1 µM (inactive) | 70 µM (inactive) | 49.7 µM (inactive) | 41.8 µM (inactive) | 90.2 µM (inactive) | > 100 µM (inactive) | 39 µM (inactive) | > 100 µM (inactive) | 45.5 µM (inactive) |
| C=CCC1(Sc2ccccn2)Sc2ccc3ccccc3c2-c2c(ccc3ccccc23)S1 | > 100 | > 100 µM (inactive) | > 100 µM (inactive) | > 100 µM (inactive) | > 100 µM (inactive) | > 100 µM (inactive) | > 100 µM (inactive) | > 100 µM (inactive) | > 100 µM (inactive) | > 100 µM (inactive) | > 100 µM (inactive) | > 100 µM (inactive) | > 100 µM (inactive) | > 100 µM (inactive) | > 100 µM (inactive) | > 100 µM (inactive) | > 100 µM (inactive) | > 100 µM (inactive) | > 100 µM (inactive) | > 100 µM (inactive) |
| O=C(NCc1ccccc1)c1cc2ccccc2o/c1=N\c1ccccc1F | 51.2 | 43.4 µM (inactive) | 41.7 µM (inactive) | > 100 µM (inactive) | 20 µM (inactive) | > 100 µM (inactive) | 21.5 µM (inactive) | 26.4 µM (inactive) | 32.7 µM (inactive) | 25.6 µM (inactive) | 14 µM (inactive) | 10.8 µM (inactive) | 28.9 µM (inactive) | 15.6 µM (inactive) | 24 µM (inactive) | 13.6 µM (inactive) | 38.6 µM (inactive) | 27.7 µM (inactive) | 31.6 µM (inactive) | 14.3 µM (inactive) |
| O=c1[nH]c2cc(C(F)(F)F)ccc2nc1Cc1ccccc1 | > 100 |  | > 100 µM (inactive) | > 100 µM (inactive) | 18.5 µM (inactive) | > 100 µM (inactive) | 37.7 µM (inactive) | > 100 µM (inactive) | 36.6 µM (inactive) | 66.2 µM (inactive) | 60.4 µM (inactive) | 36.6 µM (inactive) |  | 28.9 µM (inactive) | 46.7 µM (inactive) | > 100 µM (inactive) | 85.9 µM (inactive) | > 100 µM (inactive) | > 100 µM (inactive) | 80.2 µM (inactive) |
| COc1nc2c(c(=O)n1C)N(C(C)=O)C1C(N2)OCC(OC(C)=O)C1OC(C)=O (configuration not stated) | > 10 | > 10 µM (inactive) | > 10 µM (inactive) | > 10 µM (inactive) | > 10 µM (inactive) | > 10 µM (inactive) | > 10 µM (inactive) | > 10 µM (inactive) | > 10 µM (inactive) | > 10 µM (inactive) | > 10 µM (inactive) | > 10 µM (inactive) | > 10 µM (inactive) | > 10 µM (inactive) | > 10 µM (inactive) | > 10 µM (inactive) | > 10 µM (inactive) | > 10 µM (inactive) | > 10 µM (inactive) | > 10 µM (inactive) |
| Nc1cn(C2OC(CC(c3ccccc3)(c3ccccc3)c3ccccc3)C(O)C2O)c(=O)[nH]c1=O (configuration not stated) | 17.8 | 21.2 µM (inactive) | 18.3 µM (inactive) | 20.4 µM (inactive) | 12.7 µM (inactive) | 23.3 µM (inactive) | 6.64 µM (inactive) | 16.6 µM (inactive) | 18.7 µM (inactive) | 26.8 µM (inactive) | 19.5 µM (inactive) | 21.4 µM (inactive) | 22.1 µM (inactive) | 23.4 µM (inactive) | 23.9 µM (inactive) | 26.4 µM (inactive) | 39.6 µM (inactive) | 33.7 µM (inactive) | 73.8 µM (inactive) | 24.9 µM (inactive) |
